Bounds are passed on as bounds.

In the assay the target is T1, human M4 receptor (Homo sapiens, UniProt P08173).
T1 construct: expressed in transfected cells; host or cells: CHO cells
T1 sequence (P08173 1-479): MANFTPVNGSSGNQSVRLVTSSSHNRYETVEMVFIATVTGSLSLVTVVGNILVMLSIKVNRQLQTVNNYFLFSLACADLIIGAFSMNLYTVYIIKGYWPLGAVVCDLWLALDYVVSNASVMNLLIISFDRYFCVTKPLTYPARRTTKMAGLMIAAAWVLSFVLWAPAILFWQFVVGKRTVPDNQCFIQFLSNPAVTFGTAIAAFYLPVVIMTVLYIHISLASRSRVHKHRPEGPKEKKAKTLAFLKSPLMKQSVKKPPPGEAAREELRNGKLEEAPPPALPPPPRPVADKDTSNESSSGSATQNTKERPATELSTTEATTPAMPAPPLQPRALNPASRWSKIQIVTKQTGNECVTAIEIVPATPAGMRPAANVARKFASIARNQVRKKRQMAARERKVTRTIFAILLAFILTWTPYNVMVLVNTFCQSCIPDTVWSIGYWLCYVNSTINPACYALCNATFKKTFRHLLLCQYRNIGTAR
Put plainly: Radioligand ([3H]N-methylscopolamine) binding assay, membranes from CHO cells expressing human M4 receptor. Conditions: Ki against human M4 receptor; membranes from CHO cells; tritiated N-methylscopolamine 1.5 nM; read-out: K. The procedure, abridged:
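Competition binding used CHO-cell membranes expressing human M4 with 1.5 nM [3H]N-methylscopolamine and twelve compound concentrations ([…]). Incubation was 90 minutes at 37 °C in 50 mM HEPES, 100 mM NaCl, 5 mM MgCl2, 1 mM EDTA, pH 7.4. Bound ligand was collected by filtration onto PEI-treated glass fibre for Ki.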
Consider `C[C@@H]1CN(c2ncc3ccccc3n2)[C@@H](C)CN1C(=O)NC1CC2(C1)CN(Cc1ccccc1)C2` [Compound 212, (2R,5S)-N-{2-benzyl-2-azaspiro[3.3]heptan-6-yl}-2,5-dimethyl-4-(quinazolin-2-yl)piperazine-1-carboxamide], for which the Ki is less than 10 nM.

Consider `C[C@@H]1CN(c2ncc3ccccc3n2)CCN1C(=O)NC1CC2(C1)CN(Cc1ccccc1)C2` [Compound 213, (2R)-N-{2-benzyl-2-azaspiro[3.3]heptan-6-yl}-2-methyl-4-(quinazolin-2-yl)piperazine-1-carboxamide], for which the Ki was in the range of 10 to 100 nM. On to `C[C@@H]1CN(c2cnc3ccccc3n2)C[C@H](C)N1C(=O)NC1CC2(C1)CN(Cc1ccccc1)C2` [Compound 214, (2R,6S)-N-{2-benzyl-2-azaspiro[3.3]heptan-6-yl}-2,6-dimethyl-4-(quinoxalin-2-yl)piperazine-1-carboxamide], for which the Ki is 10 to 100 nM. The same measure for `COc1ccc2nc(N3C[C@@H](C)N(C(=O)NC4CC5(C4)CN(Cc4ccccc4)C5)[C@@H](C)C3)cnc2c1` [Compound 215, (2R,6S)-N-{2-benzyl-2-azaspiro[3.3]heptan-6-yl}-4-(6-methoxyquinoxalin-2-yl)-2,6-dimethylpiperazine-1-carboxamide]: 10 to 100 nM; for `C[C@@H]1CN(c2nc3ccc(C(F)(F)F)cc3s2)C[C@H](C)N1C(=O)NC1CC2(C1)CN(Cc1ccccc1)C2` [Compound 216, (2R,6S)-N-{2-benzyl-2-azaspiro[3.3]heptan-6-yl}-2,6-dimethyl-4-[6-(trifluoromethyl)-1,3-benzothiazol-2-yl)piperazine-1-carboxamide]: less than 10 nM. The result for `C[C@@H]1CN(c2nc3ccc(C(F)(F)F)cc3s2)C[C@@H](C)N1C(=O)NC1CC2(C1)CN(Cc1ccccc1)C2` [Compound 217, (2R,6R)-N-{2-benzyl-2-azaspiro[3.3]heptan-6-yl}-2,6-dimethyl-4-[6-(trifluoromethyl)-1,3-benzothiazol-2-yl]piperazine-1-carboxamide] reads less than 10 nM; that for `COc1ccc2nc(N3C[C@@H](C)N(C(=O)NC4CC5(C4)CN(Cc4ccccc4)C5)[C@H](C)C3)cnc2c1` [Compound 219, (2R,6R)-N-{2-benzyl-2-azaspiro[3.3]heptan-6-yl}-4-(6-methoxyquinoxalin-2-yl)-2,6-dimethylpiperazine-1-carboxamide], 10 to 100 nM. With `COc1ccc2nc(N3C[C@@H](C)N(C(=O)NC4CC5(C4)CN(Cc4ccccc4)C5)C[C@@H]3C)cnc2c1` [Compound 222, (2R,5S)-N-{2-benzyl-2-azaspiro[3.3]heptan-6-yl}-4-(6-methoxyquinoxalin-2-yl)-2,5-dimethylpiperazine-1-carboxamide], the Ki was less than 10 nM. For the compound `C[C@@H]1CN(c2cnc3ccccc3n2)CCN1C(=O)NC1CC2(C1)CN(Cc1ccccc1)C2` [Compound 224, (2R)-N-{2-benzyl-2-azaspiro[3.3]heptan-6-yl}-2-methyl-4-(quinoxalin-2-yl)piperazine-1-carboxamide], the Ki lay in the range of 10 to 100 nM.

In the case of `C[C@@H]1CN(c2nc3ccc(C(F)(F)F)cc3s2)CCN1C(=O)NC1CC2(C1)CN(Cc1ccccc1)C2` [Compound 225, (2R)-N-{2-bnezyl-2-azaspiro[3.3]heptan-6-yl}-2-methyl-4-[6-(trifluoromethyl)-1,3-benzothiazol-2-yl]piperazine-1-carboxamide], the Ki is less than 10 nM. The same measure for `C[C@@H]1CN(c2ncc(C(F)(F)F)cc2F)C[C@H](C)N1C(=O)NC1CC2(C1)CN(Cc1ccccc1)C2` [Compound 227, (2R,6S)-N-{2-benzyl-2-azaspiro[3.3]heptan-6-yl}-4-[3-fluoro-5-(trifluoromethyl)pyridin-2-yl]-2,6-dimethylpiperazine-1-carboxamide]: less than 10 nM. The result for `C[C@@H]1CN(c2nc3ccc(F)cc3s2)C[C@H](C)N1C(=O)NC1CC2(C1)CN(Cc1ccccc1)C2` [Compound 231, (2R,6S)-N-{2-benzyl-2-azaspiro[3.3]heptan-6-yl}-4-(6-fluoro-1,3-benzothiazol-2-yl)-2,6-dimethylpiperazine-1-carboxamide] reads less than 10 nM; that for `C[C@@H]1CN(c2nc3ccc(F)cc3s2)[C@@H](C)CN1C(=O)NC1CC2(C1)CN(Cc1ccccc1)C2` [Compound 233, (2R,5S)-N-{2-benzyl-2-azaspiro[3.3]heptan-6-yl}-4-(6-fluoro-1,3-benzothiazol-2-yl)-2,5-dimethylpiperazine-1-carboxamide], less than 10 nM; that for `C[C@@H]1CN(c2nc3ccc(F)cc3s2)CCN1C(=O)NC1CC2(C1)CN(Cc1ccccc1)C2` [Compound 234, (2R)-N-{2-benzyl-2-azaspiro[3.3]heptan-6-yl}-4-(6-fluoro-1,3-benzothiazol-2-yl)-2-methylpiperazine-1-carboxamide], less than 10 nM. The same measure for `C[C@@H]1CN(c2cnc3cc(C(F)(F)F)ccc3n2)C[C@H](C)N1C(=O)NC1CC2(C1)CN(Cc1ccccc1)C2` [Compound 235, (2R,6S)-N-{2-benzyl-2-azaspiro[3.3]heptan-6-yl}-2,6-dimethyl-4-[6-(trifluoromethyl)quinoxalin-2-yl]piperazine-1-carboxamide]: 10 to 100 nM; for `C[C@@H]1CN(c2cnc3cc(C(F)(F)F)ccc3n2)[C@@H](C)CN1C(=O)NC1CC2(C1)CN(Cc1ccccc1)C2` [Compound 237, (2R,5S)-N-{2-benzyl-2-azaspiro[3.3]heptan-6-yl}-2,5-dimethyl-4-[6-(trifluoromethyl)quinoxalin-2-yl]piperazine-1-carboxamide]: less than 10 nM; for `COc1ccc2nc(N3C[C@@H](C)N(C(=O)NC4CC5(C4)CN(Cc4ccccc4)C5)[C@H](C)C3)sc2c1` [Compound 242, (2R,6R)-N-{2-benzyl-2-azaspiro[3.3]heptan-6-yl}-4-(6-methoxy-1,3-benzothiazol-2-yl)-2,6-dimethylpiperazine-1-carboxamide]: less than 10 nM. Consider `C[C@@H]1CN(c2nc3ccccc3s2)[C@@H](C)CN1C(=O)NC1CC2(C1)CN(Cc1ccccc1)C2` [Compound 244, (2R,5S)-4-(1,3-benzothiazol-2-yl)-N-{2-benzyl-2-azaspiro[3.3]heptan-6-yl}-2,5-dimethylpiperazine-1-carboxamide], for which the Ki is less than 10 nM. The same measure for `C[C@@H]1CN(c2nc3ccccc3s2)CCN1C(=O)NC1CC2(C1)CN(Cc1ccccc1)C2` [Compound 245, (2R)-4-(1,3-benzothiazol-2-yl)-N-{2-benzyl-2-azaspiro[3.3]heptan-6-yl}-2-methylpiperazine-1-carboxamide]: 10 to 100 nM; for `C[C@@H]1CN(c2ncc(OC(F)F)cn2)C[C@H](C)N1C(=O)NC1CC2(C1)CN(Cc1ccccc1)C2` [Compound 247, (2R,6S)-N-{2-benzyl-2-azaspiro[3.3]heptan-6-yl}-4-[5-(difluoromethoxy)pyrimidin-2-yl]-2,6-dimethylpiperazine-1-carboxamide]: 10 to 100 nM. The same measure for `C[C@@H]1CN(c2ncc(C(F)(F)F)c(N)n2)C[C@H](C)N1C(=O)NC1CC2(C1)CN(Cc1ccccc1)C2` [Compound 248, (2R,6S)-4-[4-amino-5-(trifluoromethyl)pyrimidin-2-yl]-N-{2-benzyl-2-azaspiro[3.3]heptan-6-yl}-2,6-dimethylpiperazine-1-carboxamide]: less than 10 nM.

With `C[C@@H]1CN(c2ncc(F)cn2)C[C@H](C)N1C(=O)NC1CC2(C1)CN(Cc1ccccc1)C2` [Compound 250, (2R,6S)-N-{2-benzyl-2-azaspiro[3.3]heptan-6-yl}-4-(5-fluoropyrimidin-2-yl)-2,6-dimethylpiperazine-1-carboxamide], the Ki lay within 100 to 1000 nM. `C[C@@H]1CN(c2ncc(C#N)cn2)C[C@H](C)N1C(=O)NC1CC2(C1)CN(Cc1ccc(Cl)cc1)C2` [Compound 251, (2R,6S)-N-{2-[(4-chlorophenyl)methyl]-2-azaspiro[3.3]heptan-6-yl}-4-(5-cyanopyrimidin-2-yl)-2,6-dimethylpiperazine-1-carboxamide]: the Ki lay within 10 to 100 nM. The same measure for `C[C@@H]1CN(c2ncc(C(F)(F)F)cn2)C[C@@H](C)N1C(=O)NC1CC2(C1)CN(Cc1ccc(Cl)cc1)C2` [Compound 255, (2R,6R)-N-{2-[(4-chlorophenyl)methyl]-2-azaspiro[3.3]heptan-6-yl}-2,6-dimethyl-4-[5-(trifluoromethyl)pyrimidin-2-yl]piperazine-1-carboxamide]: 10 to 100 nM; for `C[C@@H]1CN(c2ncc(C(F)(F)F)cn2)[C@@H](C)CN1C(=O)NC1CC2(C1)CN(Cc1ccc(Cl)cc1)C2` [Compound 256, (2R,5S)-N-{2-[(4-chlorophenyl)methyl]-2-azaspiro[3.3]heptan-6-yl}-2,5-dimethyl-4-[5-(trifluoromethyl)pyrimidin-2-yl]piperazine-1-carboxamide]: less than 10 nM. The same measure for `C[C@@H]1CN(c2ncc(C(F)(F)F)cn2)CCN1C(=O)NC1CC2(C1)CN(Cc1ccc(Cl)cc1)C2` [Compound 257, (2R)-N-{2-[(4-chlorophenyl)methyl]-2-azaspiro[3.3]heptan-6-yl}-2-methyl-4-[5-(trifluoromethyl)pyrimidin-2-yl]piperazine-1-carboxamide]: 100 to 1000 nM.

The record behind these values is patent US20230129359A1, “MUSCARINIC RECEPTOR 4 ANTAGONISTS AND METHODS OF USE” (Neurocrine Biosciences, Inc., priority 2020, published 2023).
